In patent publication US11547681B2, “N-acylethanolamide derivatives and uses thereof” (ELIEM THERAPEUTICS, INC., priority 2016, dated 2023):

Experiment: in vitro
Details: for Concentration (μM) of analyte PEA, 0 min / Concentration (μM) of analyte PEA, 10 min / Concentration (μM) of analyte PEA, 20 min / Concentration (μM) of analyte PEA, 30 min / Concentration (μM) of analyte PEA, 60 min / % Remaining of Initial (n = 1), 0 min / % Remaining of Initial (n = 1), 10 min / % Remaining of Initial (n = 1), 20 min / % Remaining of Initial (n = 1), 30 min / % Remaining of Initial (n = 1), 60 min: 1 μM; for % Remaining of Initial (n = 1), 0 min: s9, 0 h; for % Remaining of Initial (n = 1), 10 min: s9, 10 min; for % Remaining of Initial (n = 1), 20 min: s9, 20 min; for % Remaining of Initial (n = 1), 30 min: s9, 0.5 h; for % Remaining of Initial (n = 1), 60 min: s9, 1 h; for half-life at 1 μM: s9, Half-life (min)
Experimental: Reaction mixture, minus cofactors, was prepared as described below. Test article was added into the reaction mixture at a final concentration of 1 μM. […] An aliquot of the reaction mixture (without cofactor cocktail) was equilibrated in a shaking water bath at 37° C. for 3 minutes. The reaction was initiated by the addition of cofactor cocktail (see below), and the mixture was then incubated in a shaking water bath at 37° C. Aliquots (100 μL) were withdrawn 0, 10, 20, 30 and 60 minutes. Test article samples were immediately combined with 300 μL of ice-cold acetonitrile containing 1% formic acid. Control samples were immediately combined with 400 μL of ice-cold 50/50 acetonitrile (ACN)/dH2O containing 0.1% formic acid and internal standard to terminate the reaction. Samples were then mixed and centrifuged to precipitate proteins. Calibration standards were prepared in matched matrix. Samples and standards were assayed by LC-MS/MS using electrospray ionization for both the dosed prodrug and the expected drug (PEA). Analytical conditions are outlined in Appendix 8-1. Test article concentration at each time point was compared to the test article concentration at time 0 to determine the percent remaining at each time point. Half-lives were calculated using GraphPad software, fitting to a single-phase exponential decay equation.
Reaction mixture, minus cofactors, was prepared as described below. Test article was added into the reaction mixture at a final concentration of 1 μM. […] An aliquot of the reaction mixture (without cofactor cocktail) was equilibrated in a shaking water bath at 37° C. for 5 minutes. Reaction was initiated by the addition of cofactor cocktail (see below), and mixture was then incubated in a shaking water bath at 37° C. Aliquots (100 μL) were withdrawn at 0, 10, 20, 30, and 60 minutes. Test article samples were immediately combined with 300 μL of ice-cold acetonitrile containing 1% formic acid. Control samples were immediately combined with 400 μL of ice-cold 50/50 acetonitrile (ACN)/dH2O containing 0.1% formic acid and internal standard to terminate the reaction. Samples were then mixed and centrifuged to precipitate proteins. Calibration standards were prepared in matched matrix. Samples and standards were assayed by LC-MS/MS using electrospray ionization for both dosed prodrug and expected drug (PEA). Analytical conditions are outlined in Appendix 10-1. Test article concentration at each time point was compared to test article concentration at time 0 to determine the percent remaining at each time point. Half-lives were calculated using GraphPad software, fitting to a single-phase exponential decay equation.
The reaction mixture, minus cofactors, was prepared as described below. Test article was added into the reaction mixture at a final concentration of 1 μM. […] An aliquot of the reaction mixture (without cofactor cocktail) was equilibrated in a shaking water bath at 37° C. for 3 minutes. Reaction was initiated by the addition of cofactor cocktail (see below), and the mixture was then incubated in a shaking water bath at 37° C. Aliquots (100 μL) were withdrawn at 0, 10, 20, 30, and 60 minutes. Test article samples were immediately combined with 300 μL of ice-cold acetonitrile containing 1% formic acid. Control samples were immediately combined with 400 μL of ice-cold 50/50 acetonitrile (ACN)/dH2O containing 0.1% formic acid and internal standard to terminate the reaction. Samples were then mixed and centrifuged to precipitate proteins. Calibration standards were prepared in matched matrix. Samples and standards were assayed by LC-MS/MS using electrospray ionization for both dosed prodrug and expected drug (PEA). Analytical conditions are outlined in Appendix 13-1. Test article concentration at each time point was compared to the test article concentration at time 0 to determine the percent remaining at each time point.

## CCCCCCCCCCCCCCCC(=O)NCCOC(=O)CCC [Compound I-2]
both, human
  Concentration (μM) of analyte PEA, 0 min: 0.20 µM
  Concentration (μM) of analyte PEA, 10 min: 0.23 µM
  Concentration (μM) of analyte PEA, 20 min: 0.18 µM
  Concentration (μM) of analyte PEA, 30 min: 0.096 µM
  Concentration (μM) of analyte PEA, 60 min: 0.033 µM
  % Remaining of Initial (n = 1), 0 min: 100%
  % Remaining of Initial (n = 1), 10 min: 6.0%
  % Remaining of Initial (n = 1), 20 min: 1.3%
  % Remaining of Initial (n = 1), 30 min: <1.0%
  % Remaining of Initial (n = 1), 60 min: <1.0%
male, Beagle, dog
  Concentration (μM) of analyte PEA, 0 min: 0.23 µM
  Concentration (μM) of analyte PEA, 10 min: 0.38 µM
  Concentration (μM) of analyte PEA, 20 min: 0.35 µM
  Concentration (μM) of analyte PEA, 30 min: 0.21 µM
  Concentration (μM) of analyte PEA, 60 min: 0.11 µM
  % Remaining of Initial (n = 1), 0 min: 100%
  % Remaining of Initial (n = 1), 10 min: 5.1%
  % Remaining of Initial (n = 1), 20 min: 2.0%
  % Remaining of Initial (n = 1), 30 min: <1.0%
  % Remaining of Initial (n = 1), 60 min: <1.0%
male, CD-1, mouse
  Concentration (μM) of analyte PEA, 0 min: 0.51 µM
  Concentration (μM) of analyte PEA, 10 min: 0.26 µM
  Concentration (μM) of analyte PEA, 20 min: 0.19 µM
  Concentration (μM) of analyte PEA, 30 min: 0.12 µM
  Concentration (μM) of analyte PEA, 60 min: 0.022 µM
  % Remaining of Initial (n = 1), 0 min: 100%
  % Remaining of Initial (n = 1), 10 min: <1.0%
  % Remaining of Initial (n = 1), 20 min: <1.0%
  % Remaining of Initial (n = 1), 30 min: <1.0%
  % Remaining of Initial (n = 1), 60 min: <1.0%
  half-life at 1 μM: < 1 min
male, Sprague-Dawley, rat
  Concentration (μM) of analyte PEA, 0 min: 0.50 µM
  Concentration (μM) of analyte PEA, 10 min: 0.31 µM
  Concentration (μM) of analyte PEA, 20 min: 0.17 µM
  Concentration (μM) of analyte PEA, 30 min: 0.11 µM
  Concentration (μM) of analyte PEA, 60 min: 0.023 µM
  % Remaining of Initial (n = 1), 0 min: 100%
  % Remaining of Initial (n = 1), 10 min: <1.0%
  % Remaining of Initial (n = 1), 20 min: <1.0%
  % Remaining of Initial (n = 1), 30 min: <1.0%
  % Remaining of Initial (n = 1), 60 min: <1.0%
  half-life at 1 μM: < 1 min
